Data on 3 molecules can be found in patent US7442783B2, “Natural IgM antibodies and inhibitors thereof” (The CBR Institute for Biomedical Research, Inc., priority 2004, dated 2008).

The target in experiment [1] is IgM^CM-22. As to the kind of experiment: SPR analysis of peptide binding to IgM^CM-22-coupled surface. Further details: species or system mouse. The note with it: calculated from steady-state response levels, 1:1 Langmuir fit; mean±SD, n=2; 25° C. The method, then: FIG. 9A is a graph showing the surface plasmon resonance for the self-peptide N2. Binding isotherms for samples of the self-peptide N2 with concentration from 10.5 μM to 120 μM injected over the IgM^CM-22-coupled surface.
FIG. 9B is a graph showing the surface plasmon resonance for a control peptide. Binding isotherm for a same-length, random-sequence control peptide (AGCMPYVRIPTA; SEQ ID NO: 62), injected at a concentration of 117 μM over the IgM^CM-22-coupled surface.
(§1) An IgM (IgM^CM-22 or IgM^CM-31) antibody was immobilized by amine coupling in a BiaCore SPR CM5™ chip flowcell at a density of 33,400 response units (RU) ˜33 ng/mm^2 as described. Vorup-Jensen et al, PNAS USA 100: 1873-1878, 2003. Briefly, a reference flow cell was prepared by coupling of ethanolamine-HCl. Peptides, diluted in PBS running buffer, were flowed separately over the IgM-coupled surface and the reference at a rate of 10 μl/min at 25° C. and with the data collection rate at 10 Hz. […] Binding isotherms were derived by subtracting the response in the reference cell from the response of the IgM-coupled surface. Following each run, the surface was regenerated by injecting 40 μl 0.05% (v/v) polyoxyethylenesorbitan monolaureate/PBS.

Experiment [2] has as its system RAG-1^−/− mice. Put plainly: Intestinal RI model in reconstituted RAG-1^−/− mice (histopathology, immunohistochemistry). The note with it: for mean pathology score: 40 min ischemia, 3 h reperfusion. Type of experiment: in vivo, mouse. On the procedure: (§2) Surgical protocol for RI was performed as previously described (Zhang et al. (2004) PNAS USA 101:3886-91). […] After 40 minutes of ischemia, the microclip was removed, and reperfusion of the mesenteric vasculature was confirmed by the return of pulsation to the vascular arcade and a change to pink color. The incision was closed, and all animals kept warm for 3 hours. Reconstituted RAG-1^−/− animals received either IgM mixed with peptide or saline in 0.2 ml volume intravenously 30 min before the initial laparotomy. WT animals were treated with saline or peptide i.v. 5 minutes prior to reperfusion. At the end of reperfusion, the ischemic segment of the jejunum was harvested and the central 4 cm was cut for pathological analysis.
(§3) Cryostat sections of intestinal tissues were stained by hematoxylin and eosin (H&E) and examined by light microscopy for mucosal damage. Pathology score was assessed based on procedure by Chiu (Chiu et al, Arch Surg 101: 484-488, 1970; Chiu, et al, Arch Surg 101: 478-483, 1970) that included direct inspection of all microvilli over a 4 cm stretch of jejuneum as described. Zhang et al. (2004) PNAS USA 101:3886-91. For immuno-fluorescence, cryosections fixed with 4% (w/v) paraformaldehyde were incubated for varying periods with either biotin-labeled anti-mouse IgM (Becton Dickinson, Calif.) followed by 1 hour with streptavidin-Alexa-568 (1:500 dilution, Molecular Probes, Oreg.). C4 deposition was detected by staining with FITC-labeled rabbit anti-huC4c (DAKO, Colo.), followed by anti-rabbit-Alexa 488 (Molecular Probes, Oreg.). The specificity of anti-C4c staining was confirmed by staining serial sections with biotin-labeled anti-mouse C4 for 1 hour followed by streptavidin-FITC (Becton Dickinson, Calif.). C3 deposition was detected by treating with FITC-labeled anti-C3 (DAKO, Colo.). Sections were mounted in Anti-fade Mounting Medium with DAPI (Molecular Probes, Oreg.).

The next experiment concerns WT mice. As to the kind of experiment: Intestinal RI model in wild type mice (histopathology, immunohistochemistry). Type of experiment: in vivo, mouse. The note with it: peptide i.v. five minutes prior to reperfusion. The method, then:
as §2, §3

A further experiment deals with IgM^CM-31. As to the kind of experiment: SPR analysis of peptide binding to control IgM^CM-31-coupled surface. Further details: species or system mouse. The note with it: peptide injected at 120 μM. On the procedure: FIG. 9D is a graph showing the binding isotherm for the injection of the self-peptide N2 at 120 μM over a surface coupled with the control IgM^CM-31.
as §1

The target of experiment [3] is IgM^CM-22. Put plainly: ELISA: synthetic peptide P8 inhibits IgM^CM-22 binding of phage clone P8. Also on record: species or system mouse. The note with it: peptide added to IgM^CM-22-coated plate prior to 5×10^11 PFU phage; estimated; read-out: concentration of P8 peptide yielding 50% inhibition of phage P8 binding to IgM^CM-22. The method, then:
FIG. 6B is a bar graph showing that the synthetic peptide P8 inhibits IgM^CM-22 binding of phage clone P8. ELISA was performed with varying concentrations of the synthetic peptide P8 added to the IgM^CM-22-coated plate prior to the addition of 5×10^11 PFU phage. The results are representative of at least three independent experiments.
(§4) ELISA was performed as described earlier (Zhang et al. (2004) PNAS USA 101:3886-91). Briefly, IgM binding to phage or phage-specific peptides was determined by coating a 96-well plate with saturating amounts of antigen. Subsequent to blocking, IgM was added (1 or 10 μg/ml) for 2 hr at 37° C. Plates were washed and then developed with alkaline phosphatase-labeled goat anti-mouse IgM (Sigma, MO). Binding of IgM to NMHC-II was determined by culturing 96-well plates previously coated with specific rabbit antibody (NMHC-II A & B; Covance Research Products; NMHC-II C a gift from Dr. Adelstein, NHLBI, NIH, Bethesda, Md.) or pan-myosin Hc (Sigma, Mo.) with intestinal lysates prepared from IgM^CM-22 reconstituted RAG-1^−/− mice either sham treated or treated for ischemia as described (Zhang et al. (2004) PNAS USA 101:3886-91). Lysates were prepared as described for immune precipitation (see below). Alkaline-phosphatase labeled goat anti-mouse IgM (Sigma, Mo.) was then used to detect bound IgM. […]

The test system of experiment [4] is IgM^CM-22. As to the kind of experiment: ELISA screening of M-13 phage clones on IgM^CM-22-coated plate. Format: binding, mouse. The note with it: five phage clones compared, ELISA (FIG. 6A). An excerpt:
FIG. 6A is a graph showing the ELISA screening of M-13 phage-display library for IgM^CM-22-specific peptides. Symbols: […]-P1 clone; X-P2 clone, ∘-P7 clone; ⋄-P8 clone. The plate was coated with a solution of IgM^CM-22 before addition of varying concentrations of phage-clones. The results are representative of at least three independent experiments.
A 12-mer M-13 phage display library (New England Biolab, Mass.) was screened by 4 rounds with MBL-beads coated with IgM^CM-22 and 2 rounds with IgM^CM-75 according to the manufacturer's recommendation. Phage clones were selected from the enriched pool and the nucleotide sequence of the relevant phage gene determined for at least ten clones. […]
ELISA was performed as described earlier (Zhang et al. (2004) PNAS USA 101:3886-91). Briefly, IgM binding to phage or phage-specific peptides was determined by coating a 96-well plate with saturating amounts of antigen. […] Binding of IgM to NMHC-II was determined by culturing 96-well plates previously coated with specific rabbit antibody (NMHC-II A & B; Covance Research Products; NMHC-II C a gift from Dr. Adelstein, NHLBI, NIH, Bethesda, Md.) or pan-myosin Hc (Sigma, Mo.) with intestinal lysates prepared from IgM^CM-22 reconstituted RAG-1^−/− mice either sham treated or treated for ischemia as described (Zhang et al. (2004) PNAS USA 101:3886-91). […]
On the technique in general: In an ELISA, binding on a coated surface is turned into a signal by an enzyme label.

The test system of experiment [5] is IgM^CM-22. As to the kind of experiment: Titration of peptide with IgM^CM-22. Further details: species or system mouse. The note with it: previous titration of peptide with IgM^CM-22.
Experiment [6] concerns antibody deficient mice (RAG-1). As to the kind of experiment: Intestinal I/R injury in antibody-deficient (RAG-1) mice reconstituted with hybridoma IgM. Format: in vivo, mouse. The note with it: IgM injected intravenously 30 minutes before initial laparotomy, permeability index (FIG. 4). On the procedure:
IgM or saline was injected intravenously 30 minutes before initial laparotomy. At the end of reperfusion, blood is obtained and permeability index is calculated as the ratio of ^125I counts of dried intestine versus that of blood. Values represent means±standard error; n equals the numbers of mice used in experimental groups. 1=WT plus normal saline; 2=RAG plus normal saline; 3=RAG plus IgM hybridoma CM-22; 4=WT sham control.
This finding was unexpected because they have a normal level of IgM in their blood. These findings led to the hypothesis that a special population of B cells termed B-1 cells are responsible for secreting the pathogenic IgM. […] To identify the specific antibody or antibodies responsible for injury, a panel of hybridoma clones were constructed from an enriched pool of peritoneal B-1 cells harvested from normal mice. The general approach for preparing hybridomas from enriched fraction of peritoneal cells includes harvesting peritoneal cells from mice treated 7 days earlier with IL-10 and subsequently enriched for CD23 negative B cells by negative selection with magnetic beads. Enriched B cells are analyzed by FACS following staining with IgM, Mac-1 and CD23 specific Mab. […]
Twenty-two IgM-secreting hybridoma clones were analyzed by pooling an equal amount of IgM product from each of the clones. […]

Experiment [7] relates to RAG-1^−/− mice. The note with it: IgM-reconstituted sham controls (no ischemia); Zhang et al. (2004); cited from earlier work.
A further experiment deals with P8 peptide. Put plainly: ELISA: IgM binding to P8 peptide-coated plates. The note with it: plate coated with 50 μg/ml P8. The method, then: FIG. 6C is a bar graph showing specific binding of the P8 peptide to IgM^CM-22. The ELISA plates were coated with 50 μg/ml solution of P8 peptide, followed by addition of IgM^CM-22 or IgM^CM-75 at 1 or 10 μg/ml. IgM binding was detected with a biotinylated rat anti-mouse IgM followed by streptavidin-phosphatase and color reaction. The results are representative of at least three independent experiments.
as §4

The test system of experiment [8] is non-muscle myosin heavy chain-II (NMHC-II) isoforms A, B and C. Put plainly: ELISA: IgM binding to captured NMHC-II from intestinal lysates. Also on record: species or system mouse. The note with it: NMHC captured from jejuneum lysates of RAG-1^−/− mice.
From the text: FIG. 8B is a series of graphs showing results of in vitro binding assays of IgM^CM-22 to the isoforms of non-muscle myosin heavy chain-II (NMHC-II). ELISA plates were coated with monoclonal antibodies for 3 different isoforms of NMHC-II (upper left: isoform A, upper right: isoform B, lower left: isoform C and lower right: anti-pan myosin antibody). Bound myosin heavy chain from intestinal lysates was detected by IgM^CM-22 or IgM^CM-31. The results represent mean±standard error of OD 405 nm units and are representative of triplicate samples.
as §4, with “101:3886-91).” for “101:3886-91). Lysates were prepared as described for immune precipitation (see below). Alkaline-phosphatase labeled goat anti-mouse IgM (Sigma, Mo.) was then used to detect bound IgM.”

The mark [9] stands for this setting: peptide mixed with IgM^CM-22 prior to injection in RAG-1^−/− mice.

“And” between values parts separate entries of the source, which are not always exact repeats. Identical values can stand only once.

One may read the Kd as the free concentration of one partner at which half of the binding sites on the other are occupied at equilibrium, for simple one-to-one binding. Consider LMKNMDPLNDNV [N2], for which the Kd at IgM^CM-22 [1] was 123 ± 61 µM. In the experiment on RAG-1^−/− mice [2] (setting [9]), the “IgM and complement deposition in reperfused jejuneum (immunohistology)” value is “no deposition of IgM and complement”; the mean pathology score is 13±8. Besides, in the experiment on WT mice, the “IgM and complement deposition in reperfused tissues (immunohistology)” value is given as “blocked”; the mean pathology score amounted to 8±5. The “SPR binding to IgM^CM-31-coupled surface” value in the experiment with IgM^CM-31 is recorded as “no binding was observed”.

For NGNNVNGNRNNN [P8], the IC50 at IgM^CM-22 [3] was approximately 10 µM. For the same molecule, the “relative binding of phage clone to IgM^CM-22” value in the experiment with IgM^CM-22 [4] is given as “bound with the highest efficiency”. In addition, in the experiment with RAG-1^−/− mice [2] (setting [9]), the “IgM and complement deposition in reperfused jejuneum (immunohistology)” value was “no evidence of IgM or complement binding”; the mean pathology score was 6±3. In the experiment with WT mice, the “IgM and complement deposition in reperfused tissues (immunohistology)” value was “no apparent deposits of IgM or complement”; the mean pathology score is recorded as 5.+−.3. For the same molecule, the “optimal concentration sufficient to block 50-100 μg of IgM^CM-22 (0.1-0.2 μM)” value in the experiment with IgM^CM-22 [5] was determined as 10 µM.

B1: IgM^CM-22: natural IgM produced from hybridoma PTA-3507; heavy chain SEQ ID NO: 2, light chain SEQ ID NO: 8 (antibody, listed as Mus musculus)
heavy: QVQLQQSGAELVKPGASVKISCKASGYAFSSYWMNWVKQRPGKGLEWIGQIYPGDGDTNYNGKFKGKATLTADKSSSTAYMQLSSLTSEDSAVYFCAREDYYGSDWYFDVWGTGTTVTVSSGKLAFFFLHIPF
light: IVMTQSAASLAVSLGQRATISYRASKSVSTSGYSYMHWNQQKPGQPPRLLIYLVSNLESGVPARFSGSGSGTDFTLNIHPVEEEDAATYYCQHIRELTRSEGGPSWK
Turning to B1, the “restoration of I/R injury” value in experiment [6] was “restored injury”. Also, the “IgM and complement deposition (immunohistology)” value in the experiment with RAG-1^−/− mice [7] is listed as “No binding of IgM or complement”. For the same molecule, the “IgM binding to P8 peptide-coated plate” value is “neither IgM bound above background” with P8 peptide (IgM at 1 μg/ml) and “significantly more” with P8 peptide (IgM at 10 μg/ml). For the same molecule, in the experiment with RAG-1^−/− mice [2] (RAG-1^−/− mice reconstituted with the IgM alone, following RI), the “IgM and complement C4 and C3 deposition in reperfused jejuneum (immunohistology)” value is “co-localization of IgM and complement C4 and C3 within the microvilli”. Besides, the mean pathology score in the experiment with RAG-1^−/− mice [2] (RAG-1^−/− mice reconstituted with the antibody alone) is 31±13 and 31±10. For the same molecule, the “binding of IgM to all three isoforms of NMHC-II (ELISA)” value in experiment [8] is “Above background binding”.
